Results on 20 compounds are retold here after patent US9120749B2, “Quinoline derivatives and MELK inhibitors containing the same” (ONCOTHERAPY SCIENCE, INC., priority 2010, dated 2015).

Assay [1] deals with MELK (Homo sapiens, UniProt Q14680). Nature of the assay: Kinase assay: MELK activity, phosphorylation of FITC-labeled histone H3 peptide measured by IMAP fluorescence polarization. The format is biochemical. The note with it: read-out: IC50 (μM) (kinase assay). The method in brief:
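A FITC-labelled histone H3 peptide served as substrate, with compounds serially diluted to 1% DMSO final. Reactions were stopped with three volumes of IMAP progressive binding solution. After 0.5 h at room temperature, fluorescence polarization was read.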
(Fluorescence polarisation rises when a labelled molecule tumbles more slowly, as on binding a larger partner.)

Assay [2] deals with T47D cells. Nature of the assay: Cell-based assay: anti-proliferative activity, Cell Counting Kit-8, 72 hours (T47D). The procedure, abridged:
(§1)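 T47D, A549 and BT-549 cells, with MELK-negative HT-1197 as control (MELK status checked by western blot), seeded at 2,000–3,000 cells/well. Growth measured by CCK-8 72 hours after inhibitor exposure; IC50 values calculated.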
For orientation: Tetrazolium assays rely on reduction of a dye to a coloured formazan, in cell work by metabolically active cells.

The test system of assay [3] is A549 cells. The assay is described as follows: Cell-based assay: anti-proliferative activity, Cell Counting Kit-8, 72 hours (A549). As to conditions: 72 hours. The method in brief:
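Cell Counting Kit-8 read-out of A549 growth after 72 hours of inhibitor exposure, cells plated in 96-well format. Values reported as IC50.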

The subject of assay [4] is HT-1197 cells. Nature of the assay: Cell-based assay: anti-proliferative activity, Cell Counting Kit-8, 72 hours (HT-1197, negative control without MELK expression). As to conditions: HT1197 cells (negative control), 72 hours. The method in brief:
as §1

For assay [5], the system named is DU4475 cells. The assay is described as follows: Cell-based assay: anti-proliferative activity, Cell Counting Kit-8, 72 hours (DU4475).

Where a name gives a salt, the structure may show the parent alone. Read-outs that look alike come from different tables or passages of the source.

Sequence of MELK (Q14680 whole entry, looked up): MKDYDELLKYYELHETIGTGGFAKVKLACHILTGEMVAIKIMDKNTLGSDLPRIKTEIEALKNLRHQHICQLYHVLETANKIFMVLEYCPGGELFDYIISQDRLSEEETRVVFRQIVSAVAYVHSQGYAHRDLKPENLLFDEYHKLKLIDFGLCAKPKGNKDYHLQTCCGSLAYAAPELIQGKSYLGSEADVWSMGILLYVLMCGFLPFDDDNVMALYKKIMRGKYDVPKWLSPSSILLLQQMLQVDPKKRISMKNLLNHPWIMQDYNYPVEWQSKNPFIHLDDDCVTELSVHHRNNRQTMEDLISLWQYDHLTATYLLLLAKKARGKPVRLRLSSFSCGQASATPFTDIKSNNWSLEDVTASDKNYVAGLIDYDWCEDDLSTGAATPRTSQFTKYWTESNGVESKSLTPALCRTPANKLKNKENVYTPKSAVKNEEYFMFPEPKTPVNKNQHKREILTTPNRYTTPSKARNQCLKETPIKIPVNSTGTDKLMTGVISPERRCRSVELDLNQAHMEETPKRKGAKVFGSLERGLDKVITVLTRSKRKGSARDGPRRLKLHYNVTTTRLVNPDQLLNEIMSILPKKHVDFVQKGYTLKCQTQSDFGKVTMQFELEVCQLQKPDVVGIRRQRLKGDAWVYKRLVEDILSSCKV

For the compound `O=C(c1cnc2ccc(-c3cc(Cl)c(O)c(Cl)c3)cc2c1N[C@H]1CC[C@H](CN2CCCC2)CC1)C1CC1` [Example 584, cyclopropyl(6-(3,5-dichloro-4-hydroxyphenyl)-4-((trans-4-(pyrrolidin-1-ylmethyl)cyclohexyl)amino)quinolin-3-yl)methanone], the IC50 – broadly, the midpoint of a concentration-inhibition curve – came out at 0.0016 µM in assay [1]; 0.13 µM in assay [2] (Homo sapiens, T47D, 72 h); 0.071 µM in assay [3] (Homo sapiens, A549, 72 h); 0.86 µM in assay [4] (Homo sapiens, HT1197, 72 h); 0.053 µM in assay [5] (Homo sapiens, DU-4475, 72 h).

As for `NC1CCN(c2ccc(Nc3c(C(=O)C4CC4)cnc4ccc(-c5cc(F)c(O)c(Cl)c5)cc34)cn2)C1` (stereo not shown) [Example 577, (4-(6-(3-aminopyrrolidin-1-yl)pyridin-3-ylamino)-6-(3-chloro-5-fluoro-4-hydroxyphenyl)quinolin-3-yl)(cyclopropyl)methanone hydrochloride], the 50% inhibitory concentration (IC50) in assay [1] (hydrochloride) amounted to 0.0037 µM; in assay [2] (72 hours, hydrochloride) it was 0.0065 µM; in assay [3] (hydrochloride), 0.029 µM; in assay [4] (hydrochloride), 0.52 µM; in assay [5] (hydrochloride) it was 0.014 µM.

In the case of `CC(C)C(=O)c1cnc2ccc(-c3cc(F)c(O)c(Cl)c3)cc2c1N[C@H]1CC[C@H](CN(C)C)CC1` [Example 620], the IC50 in assay [1] came to 0.0066 µM; in assay [2] (Homo sapiens, T47D, 72 h), 0.16 µM; in assay [3] (Homo sapiens, A549, 72 h) it was 0.18 µM; in assay [4] (Homo sapiens, HT1197, 72 h) it was 0.17 µM; in assay [5] (Homo sapiens, DU-4475, 72 h), 0.095 µM.

Turning to `COc1cc(-c2ccc3ncc(C(=O)C4CC4)c(Nc4ccc(CCN(C)C)cc4)c3c2)cc(Cl)c1O` [Example 612, (6-(3-chloro-4-hydroxy-5-methoxyphenyl)-4-(4-(2-(dimethylamino)ethyl)phenylamino)quinolin-3-yl)(cyclopropyl)methanone], the IC50 in assay [1] is 0.0055 µM; in assay [2] (Homo sapiens, T47D, 72 h) it was 0.84 µM; in assay [3] (Homo sapiens, A549, 72 h) it was 0.72 µM; in assay [4] (Homo sapiens, HT1197, 72 h) it was 4.7 µM; in assay [5] (Homo sapiens, DU-4475, 72 h), 0.4 µM.

Take `CN(C)C[C@H]1CC[C@@H](Nc2c(C(=O)C3CC3)cnc3ccc(-c4cc(Cl)c(O)c(Cl)c4)cc23)CC1` [Example 526, cyclopropyl(6-(3,5-dichloro-4-hydroxyphenyl)-4-((1s,4s)-4-((dimethylamino)methyl)cyclohexylamino)quinolin-3-yl)methanone]: the IC50 amounted to 0.0021 µM in assay [1]; 0.29 µM in assay [2] (Homo sapiens, T47D, 72 h); 0.25 µM in assay [3] (Homo sapiens, A549, 72 h); 1.2 µM in assay [4] (Homo sapiens, HT1197, 72 h); 0.15 µM in assay [5] (Homo sapiens, DU-4475, 72 h).

Take `NC1CCN(c2ncc(Nc3c(C(=O)C4CC4)cnc4ccc(-c5cc(F)c(O)c(Cl)c5)cc34)cn2)CC1` [Example 567, (4-(2-(4-aminopiperidin-1-yl)pyrimidin-5-ylamino)-6-(3-chloro-5-fluoro-4-hydroxyphenyl)quinolin-3-yl)(cyclopropyl)methanone]: the IC50 came out at 0.0083 µM in assay [1]; 0.076 µM in assay [2] (Homo sapiens, T47D, 72 h); 0.34 µM in assay [3] (Homo sapiens, A549, 72 h); 1.9 µM in assay [4] (Homo sapiens, HT1197, 72 h); 0.18 µM in assay [5] (Homo sapiens, DU-4475, 72 h).

Turning to `O=C(c1cnc2cc(F)c(-c3cc(Cl)c(O)c(Cl)c3)cc2c1Nc1ccc(N2CCNCC2)nc1)C1CC1` [Example 559, cyclopropyl(6-(3,5-dichloro-4-hydroxyphenyl)-7-fluoro-4-(6-(piperazin-1-yl)pyridin-3-ylamino)quinolin-3-yl)methanone], the IC50 in assay [1] was 0.01 µM; in assay [2] (Homo sapiens, T47D, 72 h) it was 0.46 µM; in assay [3] (Homo sapiens, A549, 72 h), 0.59 µM; in assay [4] (Homo sapiens, HT1197, 72 h), 3.2 µM; in assay [5] (Homo sapiens, DU-4475, 72 h), 0.35 µM.

For the compound `CN(C)CCc1ccc(Nc2c(C(=O)C3CC3)cnc3ccc(-c4cc(Cl)c(O)c(Cl)c4)cc23)cc1` [Example 613, Cyclopropyl(6-(3,5-dichloro-4-hydroxyphenyl)-4-(4-(2-(dimethylamino)ethyl)phenylamino)quinolin-3-yl)methanone], the IC50 in assay [1] came out at 0.0022 µM; in assay [2] (Homo sapiens, T47D, 72 h), 0.13 µM; in assay [3] (Homo sapiens, A549, 72 h), 0.075 µM; in assay [4] (Homo sapiens, HT1197, 72 h), 1 µM; in assay [5] (Homo sapiens, DU-4475, 72 h), 0.028 µM.

Regarding `COc1cc(-c2ccc3ncc(C(=O)C4CC4)c(N[C@H]4CC[C@H](CN5CCC(OC)C5)CC4)c3c2)cc(Cl)c1O` (stereo partly shown) [Example 599], the IC50 in assay [1] came to 0.005 µM; in assay [2] (Homo sapiens, T47D, 72 h), 0.51 µM; in assay [3] (Homo sapiens, A549, 72 h) it was 0.54 µM; in assay [4] (Homo sapiens, HT1197, 72 h) it was 2.8 µM; in assay [5] (Homo sapiens, DU-4475, 72 h), 0.37 µM.

With `CN(C)Cc1cccc(Nc2c(C(=O)C3CC3)cnc3ccc(-c4cc(Cl)c(O)c(Cl)c4)cc23)c1` [Example 624, cyclopropyl(6-(3,5-dichloro-4-hydroxyphenyl)-4-(3-((dimethylamino)methyl)phenylamino)quinolin-3-yl)methanone], the IC50 in assay [1] worked out at 0.0016 µM; in assay [2] (Homo sapiens, T47D, 72 h) it was 0.55 µM; in assay [3] (Homo sapiens, A549, 72 h) it was 0.089 µM; in assay [4] (Homo sapiens, HT1197, 72 h) it was 3 µM; in assay [5] (Homo sapiens, DU-4475, 72 h) it was 0.043 µM.

On to `CCCC(=O)c1cnc2ccc(-c3cc(Cl)c(O)c(OC)c3)cc2c1N[C@H]1CC[C@H](N)CC1` [Example 529, 1-(4-((trans-4-aminocyclohexyl)amino)-6-(3-chloro-4-hydroxy-5-methoxyphenyl)quinolin-3-yl)butan-1-one], for which the IC50 in assay [1] was found to be 0.0038 µM; in assay [2] (Homo sapiens, T47D, 72 h) it was 0.081 µM; in assay [3] (Homo sapiens, A549, 72 h) it was 0.15 µM; in assay [4] (Homo sapiens, HT1197, 72 h), 1.5 µM; in assay [5] (Homo sapiens, DU-4475, 72 h), 0.076 µM.

Consider `COc1cc(-c2ccc3ncc(C(=O)C4CC4)c(Nc4cccc(CN(C)C)c4)c3c2)cc(Cl)c1O` [Example 622, (6-(3-chloro-4-hydroxy-5-methoxyphenyl)-4-(3-((dimethylamino)methyl)phenylamino)quinolin-3-yl)(cyclopropyl)methanone], for which the IC50 in assay [1] was 0.0037 µM; in assay [2] (Homo sapiens, T47D, 72 h), 1.1 µM; in assay [3] (Homo sapiens, A549, 72 h) it was 0.43 µM; in assay [4] (Homo sapiens, HT1197, 72 h), 5.5 µM; in assay [5] (Homo sapiens, DU-4475, 72 h), 0.32 µM.

For the compound `COc1cc(-c2ccc3ncc(C(=O)C4CC4)c(N4CCN(C)CC4)c3c2)cc(Cl)c1O` [Example 533, (6-(3-chloro-4-hydroxy-5-methoxyphenyl)-4-(4-methylpiperazin-1-yl)quinolin-3-yl)(cyclopropyl)methanone], the IC50 in assay [1] turned out to be 0.0088 µM; in assay [2] (Homo sapiens, T47D, 72 h) it was 0.48 µM; in assay [3] (Homo sapiens, A549, 72 h), 0.26 µM; in assay [4] (Homo sapiens, HT1197, 72 h), 2.6 µM; in assay [5] (Homo sapiens, DU-4475, 72 h), 0.4 µM.

For the compound `COc1cc(-c2ccc3ncc(C(=O)C4CC4)c(Nc4ccc(N5CCNCC5)cn4)c3c2)cc(Cl)c1O` [Example 528, (6-(3-chloro-4-hydroxy-5-methoxyphenyl)-4-(5-(piperazin-1-yl)pyridin-2-ylamino)quinolin-3-yl)(cyclopropyl)methanone hydrochloride], the IC50 was 0.0044 µM in assay [1]; 1.8 µM in assay [2] (Homo sapiens, T47D, 72 h); 1.3 µM in assay [3] (Homo sapiens, A549, 72 h); 4.2 µM in assay [4] (Homo sapiens, HT1197, 72 h); 1.7 µM in assay [5] (Homo sapiens, DU-4475, 72 h).

As to `NC1CCN(c2ccc(Nc3c(C(=O)C4CC4)cnc4ccc(-c5cc(F)c(O)c(Cl)c5)cc34)cn2)C1` (stereo not shown) [Example 576, (4-(6-(3-aminopyrrolidin-1-yl)pyridin-3-ylamino)-6-(3-chloro-5-fluoro-4-hydroxyphenyl)quinolin-3-yl)(cyclopropyl)methanone], the half-inhibitory concentration (IC50) in assay [1] worked out at 0.0019 µM; in assay [2] (Homo sapiens, T47D, 72 h), 0.0094 µM; in assay [3] (Homo sapiens, A549, 72 h), 0.026 µM; in assay [4] (Homo sapiens, HT1197, 72 h), 0.53 µM; in assay [5] (Homo sapiens, DU-4475, 72 h) it was 0.012 µM.

On to `COc1cc(-c2ccc3ncc(C(=O)C4CC4)c(N[C@H]4CC[C@@H](CN(C)C)CC4)c3c2)cc(Cl)c1O` [Example 513], for which the IC50 stood at 0.002 µM in assay [1]; 0.19 µM in assay [2] (Homo sapiens, T47D, 72 h); 0.099 µM in assay [3] (Homo sapiens, A549, 72 h); 3.8 µM in assay [4] (Homo sapiens, HT1197, 72 h); 0.086 µM in assay [5] (Homo sapiens, DU-4475, 72 h).

On to `COc1cc(-c2ccc3ncc(C(=O)C4CC4)c(Nc4cnn(C5CCNCC5)c4)c3c2)cc(Cl)c1O` [Example 512, (6-(3-chloro-4-hydroxy-5-methoxyphenyl)-4-(1-(piperidin-4-yl)-1H-pyrazol-4-ylamino)quinolin-3-yl)(cyclopropyl)methanone], for which the IC50 in assay [1] came to 0.0022 µM; in assay [2] (Homo sapiens, T47D, 72 h), 0.41 µM; in assay [3] (Homo sapiens, A549, 72 h) it was 0.3 µM; in assay [4] (Homo sapiens, HT1197, 72 h) it was 2.9 µM; in assay [5] (Homo sapiens, DU-4475, 72 h), 0.31 µM.

With `O=C(c1cnc2ccc(-c3cc(Cl)c(O)c(Cl)c3)cc2c1Nc1cnn(C2CCNCC2)c1)C1CC1` [Example 511, cyclopropyl(6-(3,5-dichloro-4-hydroxyphenyl)-4-((1-(piperidin-4-yl)-1H-pyrazol-4-yl)amino)quinolin-3-yl)methanone], the half-maximal inhibitory concentration (IC50) was found to be 0.017 µM in assay [1]; 0.18 µM in assay [2] (Homo sapiens, T47D, 72 h); 0.31 µM in assay [3] (Homo sapiens, A549, 72 h); 10 µM in assay [4] (Homo sapiens, HT1197, 72 h); 0.019 µM in assay [5] (Homo sapiens, DU-4475, 72 h).

Turning to `NC1CCN(c2ncc(Nc3c(C(=O)C4CC4)cnc4ccc(-c5cc(F)c(O)c(Cl)c5)cc34)cn2)C1` (stereo not shown) [Example 573, (4-(2-(3-aminopyrrolidin-1-yl)pyrimidin-5-ylamino)-6-(3-chloro-5-fluoro-4-hydroxyphenyl)quinolin-3-yl)(cyclopropyl)methanone hydrochloride], the IC50 in assay [1] (hydrochloride) came out at 0.004 µM; in assay [2] (72 hours, hydrochloride), 0.0072 µM; in assay [3] (hydrochloride), 0.032 µM; in assay [4] (hydrochloride), 0.57 µM; in assay [5] (hydrochloride), 0.013 µM.

`CCCC(=O)c1cnc2ccc(-c3cc(Cl)c(O)c(Cl)c3)cc2c1N[C@H]1CC[C@H](CN(C)C)CC1` [Example 605, 1-{6-(3,5-Dichloro-4-hydroxyphenyl)-4-[trans-4-((dimethylamino)methyl)cylohexylamino]quinolin-3-yl}butan-1-one]: the IC50 was 0.002 µM in assay [1]; 0.095 µM in assay [2] (Homo sapiens, T47D, 72 h); 0.13 µM in assay [3] (Homo sapiens, A549, 72 h); 1.1 µM in assay [4] (Homo sapiens, HT1197, 72 h); 0.051 µM in assay [5] (Homo sapiens, DU-4475, 72 h).
